Laboratory results: patent US8853219B2, “Compounds and compositions for cognition-enhancement, methods of making, and methods of treating” (NeuroSolis, Inc., priority 2010, dated 2014)
Positions count from the first letter of the chain named. Read-outs that look alike come from different tables or passages of the source.

Key:
rat M1 receptors = biological target: T1, rat M1 receptors (Rattus norvegicus, UniProt P08482); assay: PI turnover (inositol phosphate production) in M1-CHO cells; assay type: cell-based; details: M1 versus M3 cell lines
T1 construct: host or cells: Chinese Hamster Ovary cells (M1-CHO)
T1 sequence (P08482 1-460): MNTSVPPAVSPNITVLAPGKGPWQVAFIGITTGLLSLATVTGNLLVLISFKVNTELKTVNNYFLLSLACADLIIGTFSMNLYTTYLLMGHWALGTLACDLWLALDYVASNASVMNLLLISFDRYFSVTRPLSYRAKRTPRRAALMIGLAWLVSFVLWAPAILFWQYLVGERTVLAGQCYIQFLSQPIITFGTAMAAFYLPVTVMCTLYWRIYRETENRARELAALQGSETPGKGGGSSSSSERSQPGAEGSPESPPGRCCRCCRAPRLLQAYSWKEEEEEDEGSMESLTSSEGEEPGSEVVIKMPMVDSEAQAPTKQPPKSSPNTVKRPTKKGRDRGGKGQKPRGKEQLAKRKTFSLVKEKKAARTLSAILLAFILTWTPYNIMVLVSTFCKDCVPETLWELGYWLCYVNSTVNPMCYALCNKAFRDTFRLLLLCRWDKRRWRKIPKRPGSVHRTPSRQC
Protocol: The medium was changed to 70 μL/well of inositol-free DMEM containing 2 mM glutamine, 10% FBS and 10 μCi/ml of [3H]-inositol (PE:cat #NET114A250UC), incubated overnight as above, then 100 μL of a solution of the test compound in HBSS containing 10 mM LiCl and 20 mM HEPES, pH 7.4 was added, incubation was continued for 60 min under the above conditions, and the test was stopped by removing the test compound and replacing with 100 μL of 50 mM formic acid in water at 4° C.

[1] = Blood and brain concentrations (rats) after oral gavage; assay type: in vivo, rat; details: for Brain Cmax (10 mg/kg po) 1 hr MCD-386 = 1.00: rat brain, relative to MCD-386; for Penetration into the brain: rats after oral dosing
Protocol: Long-Evans Hooded rats (Charles River: male, 250-350 g) were dosed with solutions of test compounds in PBS by oral gavage. At the desired time after dosing, the animals were anesthetized with isoflurane, and then euthanized by cervical dislocation. Blood was obtained by cardiac puncture, transferred to a 1.5 mL microcentrifuge tube containing 15U Heparin, and the plasma recovered after centrifugation. Brains were dissected, weighed, immediately chilled to 4° C., and homogenized using a PowerGen 125 homogenizer in five volumes of ice-cold 2% formic acid. Proteins were precipitated from plasma and brain homogenate with two and five volumes respectively of ice-cold 2% formic acid and clarified by centrifugation. The supernatant was ultra-filtered by centrifugation through a 3K MWCO spin column (Pall Life Sciences), following the manufacturer's instructions. The concentration of compound in the ultra-filtrate was subjected to reverse-phase liquid chromatography using a 150×2.1 mm Agilent C8 reverse-phase column on a Shimadzu Prominence LC, eluting the compounds with a gradient of 2% to 50% of acetonitrile+0.1% formic acid for compound MI-50,382, or an isocratic flow of 2% acetonitrile+0.1% formic acid for the rest of the compounds listed. The concentration of the compound in the column effluent was measured using an Applied Biosystems API-3200 triple quadrupole mass spectrometer equipped with an electrospray sample injection system. The counts of the characteristic parent and product ions of each test compound were converted to concentration units by comparison with a standard calibration curve.

[2] = biological target: T2, human muscarinic M1 receptors (Homo sapiens, UniProt P11229); assay: Stimulation of inositol phosphate production in A9L cells, human M1 (IPOne TR-FRET); assay type: cell-based; details: for huM1/A9L Smax: percentage of maximal stimulation by carbachol
T2 construct: host or cells: A9L cells
T2 sequence (P11229 1-460): T1 sequence (P08482 1-460) with V5A, S254T, S309P, K320R, G337A, V413I
Protocol: (§1) Muscarinic M1 and M3 agonist activity was evaluated by measuring the stimulation of inositol phosphate (IP) production in the presence of lithium chloride from A9L cells transfected with expression plasmids containing human muscarinic M1 and M3 receptors, respectively. The cell lines were a gift from Professor W Messer, and the methods were as described in Tejada F R et al. J. Med. Chem. 2006; 49: 7518-31 except that the assay was scaled down to run in 384 well plates, and IP was measured in the cell lysates using the non-isotopic IPOne TR-FRET assay (CIS-BIO, Inc).
(§2) Cells were grown to 90% confluence in 384 well hi-base plates (Greiner Bio-One), compounds were added at suitable concentrations in growth medium containing 10 mM LiCL, buffered with an extra 10 mM HEPES (pH7.4), and incubated for 60 minutes at 37° C. Cells were lysed and assayed for IP following the manufacturer's instructions.
(§3) The value for a full agonist is 100%, while partial agonists give values below 100%.

[3] = biological target: T3, human muscarinic M3 receptors (Homo sapiens, UniProt P20309); assay: Stimulation of inositol phosphate production in A9L cells, human M3 (IPOne TR-FRET); assay type: cell-based; details: for huM3/A9L Smax: percentage of maximal stimulation by carbachol
T3 construct: host or cells: A9L cells
Protocol: as §1, §2, §3

[4] = test system: pooled male human liver microsomes; assay: Metabolism by human liver microsomes; assay type: in vitro ADME; details: for Metabolism in human liver microsomes: 6 hours incubation; for Rate of metabolism, S- versus R-enantiomer: human liver microsomes, as also in rat liver microsomes and FMO Supersomes
Protocol: Compounds were incubated with pooled male human liver microsomes (BD Biosciences, #452172) and an NADP-regenerating system in a phosphate buffer (pH 7.4) for a total of 6 hours. Aliquots were removed every 2 hours, and 1% formic acid was added to halt the reaction. Samples were centrifuged, filtered through 0.2 micron spinfilter and the amount of each compound in the supernatants was quantitated using LC/MS/MS.

T3 sequence (P20309 whole entry): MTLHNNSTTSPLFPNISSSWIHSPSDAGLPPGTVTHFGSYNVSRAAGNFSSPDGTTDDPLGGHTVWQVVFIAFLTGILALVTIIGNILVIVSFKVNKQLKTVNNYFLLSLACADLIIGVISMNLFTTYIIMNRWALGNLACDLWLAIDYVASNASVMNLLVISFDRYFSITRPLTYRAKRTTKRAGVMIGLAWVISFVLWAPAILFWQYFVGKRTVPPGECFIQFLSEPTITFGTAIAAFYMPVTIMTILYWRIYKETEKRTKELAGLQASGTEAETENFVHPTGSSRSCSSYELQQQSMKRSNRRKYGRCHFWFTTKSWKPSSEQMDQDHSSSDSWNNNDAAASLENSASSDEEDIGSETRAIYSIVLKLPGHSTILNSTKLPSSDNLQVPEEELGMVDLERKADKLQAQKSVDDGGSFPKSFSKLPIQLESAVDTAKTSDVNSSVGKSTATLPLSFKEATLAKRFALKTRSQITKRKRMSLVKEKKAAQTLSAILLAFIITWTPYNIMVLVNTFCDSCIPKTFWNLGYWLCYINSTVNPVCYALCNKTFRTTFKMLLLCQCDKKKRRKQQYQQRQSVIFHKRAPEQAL

Cl.[2H]C([2H])([2H])C([2H])([2H])c1noc(C2CN=CNC2)n1 (stereo not drawn) [compound 2, 3-(1,1,2,2,2-d5-ethyl)-5-(1,4,5,6-tetrahydropyrimidin-5-yl)-1,2,4-oxadiazole hydrochloride]
Functional selectivity for M1 subtype by PI turnover (rat M1 receptors): M1-subtype functionally selective muscarinic agonists
Brain Cmax (10 mg/kg po) 1 hr MCD-386 = 1.00 [1]: 0.61
Penetration into the brain [1]: penetrated into the brain

Cc1noc([C@H]2CCCN[C@@H]2C)n1 [Compound 19]
huM1/A9L Smax [2]: 15%
huM3/A9L Smax [3]: 34%

Cc1nsc(C2CCCNC2)n1.Cl (stereo not drawn) [Compound 12a, 3-methyl-5-(piperidin-3-yl)-1,2,4-thiadiazole hydrochloride]
huM1/A9L ED50 relative to CCh [2]: + (key: ++: potency > 10x CCh; +: potency 2-10x CCh; +/−: potency 0.5-2x CCh; −: potency < 0.5-0.1x CCh; −−: potency < 0.1x CCh; inactive: potency too low to determine)
huM3/A9L ED50 relative to CCh [3]: + (key: ++: potency > 10x CCh; +: potency 2-10x CCh; +/−: potency 0.5-2x CCh; −: potency < 0.5-0.1x CCh; −−: potency < 0.1x CCh; inactive: potency too low to determine)

Cc1noc([C@H]2CCCN[C@@H]2C)n1 [Compound 20]
huM1/A9L Smax [2]: 9%

Cc1noc([C@H]2CCCN[C@@H]2C)n1 [Compound 21]
huM1/A9L Smax [2]: 18%
huM3/A9L Smax [3]: 14%

c1nsc(C2CCCNC2)n1 (stereo not drawn) [Compound 12b, 5-(piperidin-3-yl)-1,2,4-thiadiazole]
huM1/A9L ED50 relative to CCh [2]: − (key: ++: potency > 10x CCh; +: potency 2-10x CCh; +/−: potency 0.5-2x CCh; −: potency < 0.5-0.1x CCh; −−: potency < 0.1x CCh; inactive: potency too low to determine)
huM3/A9L ED50 relative to CCh [3]: −− (key: ++: potency > 10x CCh; +: potency 2-10x CCh; +/−: potency 0.5-2x CCh; −: potency < 0.5-0.1x CCh; −−: potency < 0.1x CCh; inactive: potency too low to determine)

Cc1noc([C@H]2CCCNC2)n1 [Compound 3a, S-(+)-3-methyl-5-(piperidin-3-yl)-1,2,4-oxadiazole]
huM1/A9L ED50 relative to CCh [2]: + (key: ++: potency > 10x CCh; +: potency 2-10x CCh; +/−: potency 0.5-2x CCh; −: potency < 0.5-0.1x CCh; −−: potency < 0.1x CCh; inactive: potency too low to determine)
huM3/A9L ED50 relative to CCh [3]: +/− (key: ++: potency > 10x CCh; +: potency 2-10x CCh; +/−: potency 0.5-2x CCh; −: potency < 0.5-0.1x CCh; −−: potency < 0.1x CCh; inactive: potency too low to determine)
Metabolism in human liver microsomes [4]: metabolized significantly less in human liver microsomes than in rat liver microsomes
Rate of metabolism, S- versus R-enantiomer [4]: metabolized faster than the R-enantiomers

[2H]C([2H])([2H])c1noc([C@@H]2CCCNC2)n1 [Compound 7b, R-(−)-3-D3-methyl-5-(piperidin-3-yl)-1,2,4-oxadiazole]
huM1/A9L ED50 relative to CCh [2]: + (key: ++: potency > 10x CCh; +: potency 2-10x CCh; +/−: potency 0.5-2x CCh; −: potency < 0.5-0.1x CCh; −−: potency < 0.1x CCh; inactive: potency too low to determine)
huM3/A9L ED50 relative to CCh [3]: +/− (key: ++: potency > 10x CCh; +: potency 2-10x CCh; +/−: potency 0.5-2x CCh; −: potency < 0.5-0.1x CCh; −−: potency < 0.1x CCh; inactive: potency too low to determine)
Metabolism in human liver microsomes [4]: metabolized significantly less in human liver microsomes than in rat liver microsomes

Cc1noc([C@H]2CCCN[C@@H]2C)n1 [Compound 22]
huM1/A9L Smax [2]: 7%
huM3/A9L Smax [3]: 15%

[2H]C([2H])([2H])c1noc([C@H]2CCCNC2)n1 [Compound 7a, S-(+)-3-D3-methyl-5-(piperidin-3-yl)-1,2,4-oxadiazole]
huM1/A9L ED50 relative to CCh [2]: +/− (key: ++: potency > 10x CCh; +: potency 2-10x CCh; +/−: potency 0.5-2x CCh; −: potency < 0.5-0.1x CCh; −−: potency < 0.1x CCh; inactive: potency too low to determine)
huM3/A9L ED50 relative to CCh [3]: −− (key: ++: potency > 10x CCh; +: potency 2-10x CCh; +/−: potency 0.5-2x CCh; −: potency < 0.5-0.1x CCh; −−: potency < 0.1x CCh; inactive: potency too low to determine)
Metabolism in human liver microsomes [4]: metabolized significantly less in human liver microsomes than in rat liver microsomes
Rate of metabolism, S- versus R-enantiomer [4]: metabolized faster than the R-enantiomers

Cc1noc([C@@H]2CCCNC2)n1 [Compound 3b, R-(−)-3-methyl-5-(piperidin-3-yl)-1,2,4-oxadiazole]
huM1/A9L ED50 relative to CCh [2]: +/− (key: ++: potency > 10x CCh; +: potency 2-10x CCh; +/−: potency 0.5-2x CCh; −: potency < 0.5-0.1x CCh; −−: potency < 0.1x CCh; inactive: potency too low to determine)
huM3/A9L ED50 relative to CCh [3]: − (key: ++: potency > 10x CCh; +: potency 2-10x CCh; +/−: potency 0.5-2x CCh; −: potency < 0.5-0.1x CCh; −−: potency < 0.1x CCh; inactive: potency too low to determine)
Metabolism in human liver microsomes [4]: metabolized significantly less in human liver microsomes than in rat liver microsomes

Cc1noc(C2CCNC2)n1 (stereo not drawn) [Compound 31, 3-methyl-5-(pyrrolidin-3-yl)-1,2,4-oxadiazole]
huM3/A9L ED50 relative to CCh ([3]; potency class relative to carbachol): − (potency < 0.5-0.1x CCh)

Cc1noc([C@H]2CCCN[C@@H]2C)n1 [Compound 24]
huM1/A9L ED50 relative to CCh [2]: −− (key: ++: potency > 10x CCh; +: potency 2-10x CCh; +/−: potency 0.5-2x CCh; −: potency < 0.5-0.1x CCh; −−: potency < 0.1x CCh; inactive: potency too low to determine)
huM1/A9L Smax [2]: 41%
huM3/A9L Smax [3]: 32%

Nc1noc(C2CCCNC2)n1 (stereo not drawn) [Compound 27, 3-Amino-5-(piperidin-3-yl)-1,2,4-oxadiazole]
huM1/A9L ED50 relative to CCh [2]: + (key: ++: potency > 10x CCh; +: potency 2-10x CCh; +/−: potency 0.5-2x CCh; −: potency < 0.5-0.1x CCh; −−: potency < 0.1x CCh; inactive: potency too low to determine)
huM3/A9L ED50 relative to CCh [3]: +/− (key: ++: potency > 10x CCh; +: potency 2-10x CCh; +/−: potency 0.5-2x CCh; −: potency < 0.5-0.1x CCh; −−: potency < 0.1x CCh; inactive: potency too low to determine)

Cl.[2H]C([2H])(C)c1noc(C2CN=CNC2)n1 (stereo not drawn) [compound 6, 3-(1,1-d2-ethyl)-5-(1,4,5,6-tetrahydropyrimidin-5-yl)-1,2,4-oxadiazole hydrochloride]
Functional selectivity for M1 subtype by PI turnover (rat M1 receptors): M1-subtype functionally selective muscarinic agonists
Brain Cmax (10 mg/kg po) 1 hr MCD-386 = 1.00 [1]: 0.82
Penetration into the brain [1]: penetrated into the brain

Cc1noc([C@H]2CCCN[C@@H]2C)n1 [Compound 23]
huM1/A9L Smax [2]: 23%
huM3/A9L Smax [3]: 19%
